According to US20080280999A1, “Process for Making Pharmaceutical Compositions with a Transient Plasticizer” (NOVARTIS AG, priority 2005, published 2008):
In brackets after ≈: the same amount, converted by molar mass.

Test: Solubility in water
Type: physicochemical
Procedure: As used herein, the term “poorly water-soluble” or “poorly soluble” refers to having a solubility in water at 20° C. of less than 1%, i.e., a “sparingly soluble to practically insoluble, or insoluble drug” as described in Remington, The Science and Practice of Pharmacy, 21st Edition, p. 212, D. B. Troy, Ed., Lippincott Williams & Wilkins (2005).

SMILES | solubility [µg/mL] | solubility in water (in words)
CN(Cc1ccccc1)C(=O)[C@H](Cc1ccc2ccccc2c1)N(C)C(=O)[C@@H]1CCCN1c1nc(=O)c2ccccc2[nH]1 | 10 (≈ 17.4 µM) | 
CC[C@@H]1/C=C(\C)C[C@H](C)C[C@H](OC)[C@H]2O[C@@](O)(C(=O)C(=O)N3CCCC[C@H]3C(=O)O[C@H](/C(C)=C/[C@@H]3CC[C@H](Cl)[C@H](OC)C3)[C@H](C)[C@@H](O)CC1=O)[C@H](C)C[C@@H]2OC [Pimecrolimus] |  | insoluble in water
